According to patent US9676704B2, “Pesticidal compositions and processes related thereto” (Dow AgroSciences LLC, priority 2014, dated 2017):

Tests used:
Beet Armyworm (BAW) = assay: Bioassays on BAW, 128-well diet tray assay; format: in vivo; details: Spodoptera exigua; for mortality at 50 µg/cm2: 168 h, 50 μg/cm^2 on artificial diet, second instar larvae, five to seven days, 25° C., read-out: BAW % Control (or Mortality) rating
Experimental: Bioassays on BAW were conducted using a 128-well diet tray assay. one to five second instar BAW larvae were placed in each well (3 mL) of the diet tray that had been previously filled with 1 mL of artificial diet to which 50 μg/cm^2 of the test compound (dissolved in 50 μL of 90:10 acetone-water mixture) had been applied (to each of eight wells) and then allowed to dry. Trays were covered with a clear self-adhesive cover, and held at 25° C., 14:10 light-dark for five to seven days. Percent mortality was recorded for the larvae in each well; activity in the eight wells was then averaged. The results are indicated in the tables entitled “Table ABC: Assay Results (F)”, “Table ABCD: Assay Results (C)”, and “Table ABCDE: Assay Results (P)” (See Table Section).
(§1) Bioassays on BAW and CL were conducted according to the procedures outlined in Example A: Bioassays on Beet Armyworm (“BAW”) and Cabbage Looper (“CL”) using the following concentrations: 5, 0.5, and 0.05 μg/cm^2.

Cabbage Looper (CL) = assay: Bioassays on CL, 128-well diet tray assay; format: in vivo; details: Trichoplusia ni; for mortality at 50 µg/cm2: 168 h, 50 μg/cm^2 on artificial diet, second instar larvae, five to seven days, 25° C., read-out: CL % Control (or Mortality) rating
Experimental: Bioassays on CL were conducted using a 128-well diet tray assay. One to five second instar CL larvae were placed in each well (3 mL) of the diet tray that had been previously filled with 1 mL of artificial diet to which 50 μg/cm^2 of the test compound (dissolved in 50 μL of 90:10 acetone-water mixture) had been applied (to each of eight wells) and then allowed to dry. Trays were covered with a clear self-adhesive cover, and held at 25° C., 14:10 light-dark for five to seven days. Percent mortality was recorded for the larvae in each well; activity in the eight wells was then averaged. The results are indicated in the table entitled “Table ABC: Assay Results (F)”, “Table ABCD: Assay Results (C)”, and “Table ABCDE: Assay Results (P)” (See Table Section).
as §1

[1] = tested on: Yellow Fever Mosquito (YFM); format: in vivo, Aedes aegypti; details: 15 μL of diluted 4000 ppm master solution per well, about 1 day-old larvae, 3 days
Experimental: Master plates containing 400 μg of a molecule dissolved in 100 μL of dimethyl sulfoxide (DMSO) (equivalent to a 4000 ppm solution) are used. A master plate of assembled molecules contains 15 μL per well. To this plate, 135 μL of a 90:10 water:acetone mixture is added to each well. A robot (Biomek® NXP Laboratory Automation Workstation) is programmed to dispense 15 μL aspirations from the master plate into an empty 96-well shallow plate (“daughter” plate). There are 6 reps (“daughter” plates) created per master. The created daughter plates are then immediately infested with YFM larvae. The day before plates are to be treated, mosquito eggs are placed in Millipore water containing liver powder to begin hatching (4 g. into 400 mL). After the daughter plates are created using the robot, they are infested with 220 μL of the liver powder/larval mosquito mixture (about 1 day-old larvae). After plates are infested with mosquito larvae, a non-evaporative lid is used to cover the plate to reduce drying. Plates are held at room temperature for 3 days prior to grading. After 3 days, each well is observed and scored based on mortality. The results are indicated in the table entitled “Table ABC: Assay Results (F)” and “Table ABCD: Assay Results (C)” (See Table Section). Pesticidally Acceptable Acid Addition Salts, Salt Derivatives, Solvates, Ester Derivatives, Polymorphs, Isotopes and Radionuclides

SMILES	mortality at 50 µg/cm2 (Beet Armyworm (BAW)) [%]	mortality at 50 µg/cm2 (Cabbage Looper (CL)) [%]	YFM % Control (or Mortality) rating [1]	mortality at 0.05 µg/cm2 (Beet Armyworm (BAW); 0.05 μg/cm^2, read-out: BAW Percent control (or mortality)) [%]	mortality at 0.5 µg/cm2 (Beet Armyworm (BAW); 0.5 μg/cm^2, read-out: BAW Percent control (or mortality)) [%]	mortality at 5 µg/cm2 (Beet Armyworm (BAW); 5 μg/cm^2, read-out: BAW Percent control (or mortality)) [%]	mortality at 0.05 µg/cm2 (Cabbage Looper (CL); 0.05 μg/cm^2, read-out: CL Percent control (or mortality)) [%]	mortality at 0.5 µg/cm2 (Cabbage Looper (CL); 0.5 μg/cm^2, read-out: CL Percent control (or mortality)) [%]	mortality at 5 µg/cm2 (Cabbage Looper (CL); 5 μg/cm^2, read-out: CL Percent control (or mortality)) [%]
C[C@H](NC(=O)CCC(F)(F)F)NC(=O)c1ccc(/C=C/C(c2cc(Cl)c(Br)c(Cl)c2)C(F)(F)F)cc1C(F)(F)F (stereo partly drawn) [Compound P12, 4-((E)-3-(4-Bromo-3,5-dichlorophenyl)-4,4,4-trifluorobut-1-en-1-yl)-N—((R)-1-(4,4,4-trifluorobutanamido)ethyl)-2-(trifluoromethyl)benzamide]	50 to 100	50 to 100	A (80-100)						
C[C@@H](NC(=O)c1ccc(/C=C/C(c2cc(Cl)c(Cl)c(Cl)c2)C(F)(F)F)cc1C(F)(F)F)NC(=O)C1CC1 (stereo partly drawn) [Compound F7, N—((R)-1-(Cyclopropanecarboxamido)ethyl)-4-((E)-4,4,4-trifluoro-3-(3,4,5-trichlorophenyl)but-1-en-1-yl)-2-(trifluoromethyl)benzamide]	50 to 100	50 to 100	A (80-100)						
C[C@H](NC(=O)CC#N)NC(=O)c1ccc(/C=C/C(c2cc(Cl)c(Cl)c(Cl)c2)C(F)(F)F)cc1C(F)(F)F (stereo partly drawn) [Compound F11, N—((R)-1-(2-Cyanoacetamido)ethyl)-4-((E)-4,4,4-trifluoro-3-(3,4,5-trichlorophenyl)but-1-en-1-yl)-2-(trifluoromethyl)benzamide]	50 to 100	50 to 100	A (80-100)						
CC(NC(=O)c1ccc(/C=C/C(c2cc(Cl)c(Cl)c(Cl)c2)C(F)(F)F)cc1C(F)(F)F)NC(=O)C(C)(C)C (stereo in doubt) [Compound F19, N—((S)-1-Pivalamidoethyl)-4-((E)-4,4,4-trifluoro-3-(3,4,5-trichlorophenyl)but-1-en-1-yl)-2-(trifluoromethyl)benzamide]	50 to 100	50 to 100	A (80-100)						
CC(C)CCC(=O)N[C@@H](C)NC(=O)c1ccc(/C=C/C(c2cc(Cl)c(Cl)c(Cl)c2)C(F)(F)F)cc1C(F)(F)F (stereo partly drawn) [Compound F4, N—((R)-1-(4-Methylpentanamido)ethyl)-4-((E)-4,4,4-trifluoro-3-(3,4,5-trichlorophenyl)but-1-en-1-yl)-2-(trifluoromethyl)benzamide]	50 to 100	50 to 100	A (80-100)						
CC(C)CC(=O)N[C@@H](C)NC(=O)c1ccc(/C=C/C(c2cc(Cl)c(Cl)c(Cl)c2)C(F)(F)F)cc1C(F)(F)F (stereo partly drawn) [Compound F6, N—((R)-1-(3-Methylbutanamido)ethyl)-4-((E)-4,4,4-trifluoro-3-(3,4,5-trichlorophenyl)but-1-en-1-yl)-2-(trifluoromethyl)benzamide]	50 to 100	50 to 100	A (80-100)						
CC[C@H](NC(=O)CCC(F)(F)F)NC(=O)c1ccc(/C=C/C(c2cc(Cl)c(Cl)c(Cl)c2)C(F)(F)F)cc1C(F)(F)F (stereo partly drawn) [Compound F12, 4-((E)-4,4,4-Trifluoro-3-(3,4,5-trichlorophenyl)but-1-en-1-yl)-N—((R)-1-(4,4,4-trifluorobutanamido)propyl)-2-(trifluoromethyl)benzamide]	50 to 100	50 to 100	A (80-100)						
CN(CCNC(=O)c1ccc(/C=C/C(c2cc(Cl)c(Cl)c(Cl)c2)C(F)(F)F)cc1C(F)(F)F)C(=O)CC(F)(F)F (stereo not drawn) [Compound F20, (E)-4-(4,4,4-trifluoro-3-(3,4,5-trichlorophenyl)but-1-en-1-yl)-N-(2-(3,3,3-trifluoro-N-methylpropanamido)ethyl)-2-(trifluoromethyl)benzamide]	50 to 100	50 to 100	A (80-100)						
Cc1cc(/C=C/C(c2cc(Cl)c(F)c(Cl)c2)C(F)(F)F)ccc1C(=O)N[C@H](C)NC(=O)CC(F)(F)F (stereo partly drawn) [Compound P5, 4-((E)-3-(3,5-Dichloro-4-fluorophenyl)-4,4,4-trifluorobut-1-en-1-yl)-2-methyl-N—((R)-1-(3,3,3-trifluoropropanamido)ethyl)benzamide]	50 to 100	50 to 100	A (80-100)						
C[C@H](NC(=O)CCC#N)NC(=O)c1ccc(/C=C/C(c2cc(Cl)c(Cl)c(Cl)c2)C(F)(F)F)cc1C(F)(F)F (stereo partly drawn) [Compound F9, N—((R)-1-(3-cyanopropanamido)ethyl)-4-((E)-4,4,4-trifluoro-3-(3,4,5-trichlorophenyl)but-1-en-1-yl)-2-(trifluoromethyl)benzamide]	50 to 100	50 to 100	A (80-100)						
CC(C)=CC(=O)N[C@@H](C)NC(=O)c1ccc(/C=C/C(c2cc(Cl)c(Cl)c(Cl)c2)C(F)(F)F)cc1C(F)(F)F (stereo partly drawn) [Compound F8, N—((R)-1-(3-Methylbut-2-enamido)ethyl)-4-((E)-4,4,4-trifluoro-3-(3,4,5-trichlorophenyl)but-1-en-1-yl)-2-(trifluoromethyl)benzamide]	50 to 100	50 to 100	A (80-100)						
CN(NC(=O)c1ccc(/C=C/C(c2cc(Cl)c(Cl)c(Cl)c2)C(F)(F)F)cc1C(F)(F)F)C(=O)CC(F)(F)F (stereo not drawn) [Compound F22, (E)-N′-methyl-4-(4,4,4-trifluoro-3-(3,4,5-trichlorophenyl)but-1-en-1-yl)-2-(trifluoromethyl)-N′-(3,3,3-trifluoropropanoyl)benzohydrazide]	50 to 100	50 to 100	A (80-100)						
Cc1cc(/C=C/C(c2cc(Br)cc(Br)c2)C(F)(F)F)ccc1C(=O)N[C@H](C)NC(=O)CC(F)(F)F (stereo partly drawn) [Compound P7, 4-((E)-3-(3,5-Dibromophenyl)-4,4,4-trifluorobut-1-en-1-yl)-2-methyl-N—((R)-1-(3,3,3-trifluoropropanamido)ethyl)benzamide]	50 to 100	50 to 100	A (80-100)						
CN(NC(=O)c1ccc(/C=C/C(c2cc(Cl)c(Cl)c(Cl)c2)C(F)(F)F)cc1C(F)(F)F)C(=O)CCC(F)(F)F (stereo not drawn) [Compound F23, (E)-N′-Methyl-4-(4,4,4-trifluoro-3-(3,4,5-trichlorophenyl)but-1-en-1-yl)-N′-(4,4,4-trifluorobutanoyl)-2-(trifluoromethyl)benzohydrazide]	50 to 100	50 to 100	A (80-100)						
C[C@H](NC(=O)CC(F)(F)F)NC(=O)c1ccc(/C=C/C(c2cc(Cl)c(Cl)c(Cl)c2)C(F)(F)F)cc1Br (stereo partly drawn) [Compound P24]	50 to 100	50 to 100	D (No activity noticed in this bioassay)	0	7	87	6	19	100
C[C@H](NC(=O)CC(F)(F)F)NC(=O)c1ccc(/C=C/C(c2cc(Br)c(Cl)c(Br)c2)C(F)(F)F)cc1C(F)(F)F (stereo partly drawn) [Compound P2, 4-((E)-3-(3,5-Dibromo-4-chlorophenyl)-4,4,4-trifluorobut-1-en-1-yl)-2-(trifluoromethyl)-N—((R)-1-(3,3,3-trifluoropropanamido)ethyl)benzamide]	50 to 100	50 to 100	A (80-100)						
